What was measured:
Conditions in all cases: 72 h
KU-812 [1] = test: cell viability (% survival relative to DMSO control, bortezomib = 0%); higher = less cytotoxic
How it was run: (§1)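 Seeding density for each of the 10 AML and 5 CML cell lines was titrated to the linear growth range. Cells went into 384-well plates pre-printed in duplicate with compounds at 1, 10, 100, 1000 or 10000 nM and were held for 72 h at 37 °C with 5% CO2. CellTiter-Glo luminescence then provided the readout. Percent survival is expressed relative to vehicle at 100% and a 10 µM positive control at 0%, averaged over duplicates.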

SHI-1 [2] = test: as above
How it was run: as §1

KCL-22 [3] = test: as above
How it was run: as §1

LAMA-84 [4] = test: as above
How it was run: as §1

Mono-Mac-6 [5] = test: as above
How it was run: as §1

HL-60 [6] = test: as above
How it was run: as §1

MV4-11 [7] = test: as above
How it was run: as §1

K-562 [8] = test: as above
How it was run: as §1

MOLM-13 [9] = test: as above
How it was run: as §1

NOMO-1 [10] = test: as above
How it was run: as §1

KG-1 [11] = test: as above
How it was run: as §1

HEL [12] = test: as above
How it was run: as §1

BV-173 [13] = test: as above
How it was run: as §1

THP-1 [14] = test: as above
How it was run: as §1

ML-2 [15] = test: as above
How it was run: as §1

KU-812 [16] = test system: KU-812
How it was run: (§2)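 Fifteen myeloid leukaemia lines were incubated for 72 h at 37 °C with 5% CO2 across five tenfold doses from 1 to 10,000 nM, in duplicate. ATP luminescence was normalised to vehicle and to a positive control at 10 µM and fitted with a four-parameter log-logistic model. The IC50 came from these dose–response fits.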

SHI-1 [17] = test system: SHI-1
How it was run: as §2

KCL-22 [18] = test system: KCL-22
How it was run: as §2

LAMA-84 [19] = test system: LAMA-84
How it was run: as §2

Mono-Mac-6 [20] = test system: Mono-Mac-6
How it was run: as §2

HL-60 [21] = test system: HL-60
How it was run: as §2

MV4-11 [22] = test system: MV4-11
How it was run: as §2

K-562 [23] = test system: K-562
How it was run: as §2

MOLM-13 [24] = test system: MOLM-13
How it was run: as §2

NOMO-1 [25] = test system: NOMO-1
How it was run: as §2

KG-1 [26] = test system: KG-1
How it was run: as §2

HEL [27] = test system: HEL
How it was run: as §2

BV-173 [28] = test system: BV-173
How it was run: as §2

THP-1 [29] = test system: THP-1
How it was run: as §2

ML-2 [30] = test system: ML-2
How it was run: as §2

Cc1c(Cl)cccc1S(=O)(=O)Nc1nc(CC(=O)N2CCN(C)CC2)cs1 [BVT-2733]
cell viability [%]
Conditions	1 nM	10 nM	100 nM	1000 nM	10000 nM
BV-173 [13]	102	103	94.8	93.3	88.5
HEL [12]	106	82.9	96.3	108	101
HL-60 [6]	99.9	93.4	78.9	122	93.5
K-562 [8]	98	83.5	87.1	104	102
KCL-22 [3]	114	83.6	97.9	98.2	98.1
KG-1 [11]	102	92.8	94.2	98.2	105
KU-812 [1]	107	95.4	96.6	95.9	86.4
LAMA-84 [4]	101	93.4	96.9	105	99.9
ML-2 [15]	108	91.1	92.6	108	99.6
MOLM-13 [9]	99.7	89.1	97.8	110	96.4
MV4-11 [7]	107	95.1	88.3	108	112
Mono-Mac-6 [5]	107	88	107	114	99.6
NOMO-1 [10]	105	97.6	99.1	99.1	95.4
SHI-1 [2]	110	101	105	111	104
THP-1 [14]	107	91	100	97	92.9

Conditions	IC50 (cell viability) [µM]
BV-173 [28]	> 10
HEL [27]	> 10
HL-60 [21]	> 10
K-562 [23]	> 10
KCL-22 [18]	> 10
KG-1 [26]	> 10
KU-812 [16]	> 10
LAMA-84 [19]	> 10
ML-2 [30]	> 10
MOLM-13 [24]	> 10
MV4-11 [22]	> 10
Mono-Mac-6 [20]	> 10
NOMO-1 [25]	> 10
SHI-1 [17]	> 10
THP-1 [29]	> 10

CCc1oc2ccccc2c1C(=O)c1cc(Br)c(O)c(Br)c1 [Benzbromarone]
cell viability [%]
Conditions	1 nM	10 nM	100 nM	1000 nM	10000 nM
BV-173 [13]	106	94.1	117	95.9	127
HEL [12]	92.3	101	101	89.8	122
HL-60 [6]	88.5	88.1	136	94.1	104
K-562 [8]	117	94.6	103	97.7	103
KCL-22 [3]	108	90.7	91.5	90.2	124
KG-1 [11]	95.7	97.7	102	94.1	102
KU-812 [1]	100	95.2	97.9	87.4	104
LAMA-84 [4]	103	98.7	96.3	96.1	107
ML-2 [15]	99.6	96.6	109	93.4	109
MOLM-13 [9]	101	101	91.3	90.8	136
MV4-11 [7]	107	100	97	91.2	118
Mono-Mac-6 [5]	102	95.3	106	102	126
NOMO-1 [10]	95.1	103	94.8	93.9	109
SHI-1 [2]	104	86	104	103	117
THP-1 [14]	105	95.7	112	101	86.3

Conditions	IC50 (cell viability) [µM]
BV-173 [28]	> 10
HEL [27]	> 10
HL-60 [21]	> 10
K-562 [23]	> 10
KCL-22 [18]	> 10
KG-1 [26]	> 10
KU-812 [16]	> 10
LAMA-84 [19]	> 10
ML-2 [30]	> 10
MOLM-13 [24]	> 10
MV4-11 [22]	> 10
Mono-Mac-6 [20]	> 10
NOMO-1 [25]	> 10
SHI-1 [17]	> 10
THP-1 [29]	> 10

CCOC(=O)c1sc(NC(=O)c2ccco2)c(SC#N)c1C [CBR-5884]
cell viability [%]
Conditions	1 nM	10 nM	100 nM	1000 nM	10000 nM
BV-173 [13]	100	111	87.5	105	80
HEL [12]	102	102	98.2	104	86.5
HL-60 [6]	103	102	89.5	92.7	59.4
K-562 [8]	89.9	105	92.7	88.9	83.7
KCL-22 [3]	110	85.5	107	105	94.6
KG-1 [11]	90.5	83.3	103	94.3	74.9
KU-812 [1]	93.5	101	109	94.8	88.3
LAMA-84 [4]	89.2	102	103	102	99.1
ML-2 [15]	94.5	97.2	104	99.3	60.5
MOLM-13 [9]	97.2	82.9	112	97.3	81.4
MV4-11 [7]	79.9	96.3	116	88.3	51.1
Mono-Mac-6 [5]	94.9	111	102	103	91.1
NOMO-1 [10]	99.8	104	97.4	100	94.5
SHI-1 [2]	90.4	87.1	102	103	81.3
THP-1 [14]	102	97.1	98.1	94.4	100

Conditions	IC50 (cell viability) [µM]
BV-173 [28]	> 10
HEL [27]	> 10
HL-60 [21]	> 10
K-562 [23]	> 10
KCL-22 [18]	> 10
KG-1 [26]	> 10
KU-812 [16]	> 10
LAMA-84 [19]	> 10
ML-2 [30]	> 10
MOLM-13 [24]	> 10
MV4-11 [22]	7.25
Mono-Mac-6 [20]	> 10
NOMO-1 [25]	> 10
SHI-1 [17]	> 10
THP-1 [29]	> 10

O=C(/C=C/c1ccc(O)c(O)c1)OCCc1ccccc1 [Caffeic acid phenethyl ester]
cell viability [%]
Conditions	1 nM	10 nM	100 nM	1000 nM	10000 nM
BV-173 [13]	93.2	102	94.3	31.9	1.21
HEL [12]	92.8	96.8	84.1	77.9	24.8
HL-60 [6]	96.3	111	92.2	56.7	16.2
K-562 [8]	90.1	94.8	97.8	95.2	48.5
KCL-22 [3]	87.2	108	93.3	71.9	35.8
KG-1 [11]	97.2	102	94.7	61	23.5
KU-812 [1]	96.1	93	93.2	33.2	7.74
LAMA-84 [4]	105	104	98.1	89.3	36.3
ML-2 [15]	97.8	106	104	61.4	2.29
MOLM-13 [9]	90.7	94.9	81.9	97.2	50.8
MV4-11 [7]	94.5	90.6	111	65	0.624
Mono-Mac-6 [5]	95	92.7	102	79.1	39.4
NOMO-1 [10]	93.6	96.3	86.1	80.8	85.5
SHI-1 [2]	95.7	99.5	103	86.1	69
THP-1 [14]	92.7	100	91.9	86.3	51

Conditions	IC50 (cell viability) [µM]
BV-173 [28]	0.664
HEL [27]	4.18
HL-60 [21]	1.07
K-562 [23]	> 10
KCL-22 [18]	2.21
KG-1 [26]	1.1
KU-812 [16]	0.649
LAMA-84 [19]	6.17
ML-2 [30]	1.26
MOLM-13 [24]	> 10
MV4-11 [22]	1.39
Mono-Mac-6 [20]	3.47
NOMO-1 [25]	> 10
SHI-1 [17]	> 10
THP-1 [29]	6.98

CCCCCOC(=O)Nc1nc(=O)n([C@@H]2O[C@H](C)[C@@H](O)[C@H]2O)cc1F [Capecitabine]
cell viability [%]
Conditions	1 nM	10 nM	100 nM	1000 nM	10000 nM
BV-173 [13]	100	93.8	102	97.5	88.3
HEL [12]	86.1	87	106	106	87.6
HL-60 [6]	104	85.2	109	101	72
K-562 [8]	97.4	92.5	82.9	99.9	93.3
KCL-22 [3]	118	85.4	66.3	109	85.2
KG-1 [11]	98.1	91.1	103	97.5	86.8
KU-812 [1]	90.7	93.3	104	102	89.9
LAMA-84 [4]	91.9	94.5	87.6	99	99.9
ML-2 [15]	107	95.5	86.1	94.1	98.3
MOLM-13 [9]	87.7	104	121	113	70.8
MV4-11 [7]	98.2	90.8	110	103	89.7
Mono-Mac-6 [5]	100	90.2	113	95.6	93.1
NOMO-1 [10]	99.5	100	94.9	93	99.9
SHI-1 [2]	102	99.1	97.1	107	96.7
THP-1 [14]	102	100	94.1	105	94.6

Conditions	IC50 (cell viability) [µM]
BV-173 [28]	> 10
HEL [27]	> 10
HL-60 [21]	> 10
K-562 [23]	> 10
KCL-22 [18]	> 10
KG-1 [26]	> 10
KU-812 [16]	> 10
LAMA-84 [19]	> 10
ML-2 [30]	> 10
MOLM-13 [24]	> 10
MV4-11 [22]	> 10
Mono-Mac-6 [20]	> 10
NOMO-1 [25]	> 10
SHI-1 [17]	> 10
THP-1 [29]	> 10
